The supplement of paper PMC7806825

System: McpC ligand-binding domain (Salmonella Typhimurium SL1344)
Experiment: protein melting temperature (Tm) in presence of compound (degrees C); higher = more thermal stabilisation (possible ligand binding)
Details: compound stock concentration: 10-20 mM, 2 uL in 10 uL reaction

Question: Which protein melting temperature (Biolog plate: PM02A) does the source give for `OC[C@@H](O)[C@H](O)[C@@H](O)CO` [Xylitol] here?
Answer: The protein melting temperature was 44.3.

Question: `OC[C@H]1O[C@H](O)[C@H](O)[C@@H](O)[C@@H]1O` [a-D-Glucose] was tested. Which protein melting temperature (Biolog plate: PM01) did it give?
Answer: The protein melting temperature was 44.9.

Question: What about the protein melting temperature (Biolog plate: PM05) of the same compound?
Answer: Its protein melting temperature is 42.9.

Question: For `CC[C@H](O)C(=O)O` [a-Hydroxybutyric acid], which protein melting temperature (Biolog plate: PM01) is on record?
Answer: Its protein melting temperature is 44.6.

Question: And the protein melting temperature (Biolog plate: PM05)?
Answer: The protein melting temperature was 43.7.

Question: For `O=C1CC[C@@H](C(=O)O)O1` [a-Hydroxyglutaric acid-g-Lactone], which protein melting temperature (Biolog plate: PM01) is on record?
Answer: The protein melting temperature was 45.3.

Question: With `CCCC(=O)C(=O)O` [a-Keto-Valeric acid] as the compound, how does the protein melting temperature (Biolog plate: PM02A) read?
Answer: Its protein melting temperature is 44.3.

Question: What does the source list for `CCC(=O)C(=O)O` [a-Ketobutyric acid]?
Answer: protein melting temperature (Biolog plate: PM01): 43.9; protein melting temperature (Biolog plate: PM05): 44

Question: For `CO[C@H]1O[C@H](CO)[C@H](O)[C@H](O)[C@H]1O` [a-Methyl-D-Galactoside], which protein melting temperature (Biolog plate: PM01) is on record?
Answer: Its protein melting temperature is 44.9.

Question: Which protein melting temperature (Biolog plate: PM02A) does the source give for `CO[C@H]1O[C@H](CO)[C@@H](O)[C@H](O)[C@H]1O` [a-Methyl-D-Glucoside] here?
Answer: Its protein melting temperature is 44.2.

Question: How did the protein melting temperature (Biolog plate: PM02A) turn out when `CO[C@H]1O[C@H](CO)[C@@H](O)[C@H](O)[C@@H]1O` [a-Methyl-D-Mannoside] was run?
Answer: The protein melting temperature was 44.9.

Question: Which protein melting temperature (Biolog plate: PM02A) does the source give for `OC[C@H]1O[C@@H]2O[C@H]3[C@H](O)[C@@H](O)[C@@H](O[C@H]4[C@H](O)[C@@H](O)[C@@H](O[C@H]5[C@H](O)[C@@H](O)[C@@H](O[C@H]6[C@H](O)[C@@H](O)[C@@H](O[C@H]7[C@H](O)[C@@H](O)[C@@H](O[C@H]8[C@H](O)[C@@H](O)[C@@H](O[C@H]1[C@H](O)[C@H]2O)O[C@@H]8CO)O[C@@H]7CO)O[C@@H]6CO)O[C@@H]5CO)O[C@@H]4CO)O[C@@H]3CO` [b-Cyclodextrin] here?
Answer: Its protein melting temperature is 45.4.

Question: Which protein melting temperature (Biolog plate: PM04A) does the source give for `O=P(O)(O)OC(CO)CO` [b-Glycerol Phosphate] here?
Answer: The protein melting temperature was 44.3.

Question: How did the protein melting temperature (Biolog plate: PM02A) turn out when `C[C@@H](O)CC(=O)O` [b-Hydroxybutyric acid] was run?
Answer: Its protein melting temperature is 44.6.

Question: `CO[C@@H]1O[C@H](CO)[C@H](O)[C@H](O)[C@H]1O` [b-Methyl-D-Galactoside] was tested. Which protein melting temperature (Biolog plate: PM02A) did it give?
Answer: The protein melting temperature was 43.7.

Question: How did the protein melting temperature (Biolog plate: PM01) turn out when `CO[C@@H]1O[C@H](CO)[C@@H](O)[C@H](O)[C@H]1O` [b-Methyl-D-Glucoside] was run?
Answer: The protein melting temperature was 44.7.

Question: `CO[C@@H]1O[C@H](C(=O)O)[C@@H](O)[C@H](O)[C@H]1O` [b-Methyl-D-Glucuronic acid] was tested. Which protein melting temperature (Biolog plate: PM02A) did it give?
Answer: The protein melting temperature was 44.1.

Question: How did the protein melting temperature (Biolog plate: PM02A) turn out when `CO[C@@H]1OC[C@@H](O)[C@H](O)[C@H]1O` [b-Methyl-D-Xyloside] was run?
Answer: The protein melting temperature was 44.2.

Question: Which protein melting temperature (Biolog plate: PM05) does the source give for `NC(=O)c1ccc[n+](C2OC(COP(=O)([O-])OP(=O)(O)OCC3OC(n4cnc5c(N)ncnc54)C(O)C3O)C(O)C2O)c1` (configuration not stated) [b-Nicotinamide Adenine Dinucleotide] here?
Answer: Its protein melting temperature is 44.8.

Question: With `NCCc1ccccc1` [b-Phenylethylamine] as the compound, how does the protein melting temperature (Biolog plate: PM03B) read?
Answer: The protein melting temperature was 44.6.

Question: How did the protein melting temperature (Biolog plate: PM05) turn out when `NCC(=O)CCC(=O)O` [d-Amino-levulinic acid] was run?
Answer: Its protein melting temperature is 43.8.

Question: How did the protein melting temperature (Biolog plate: PM03B) turn out when `NCCCCCC(=O)O` [e-Amino-N-Caproic acid] was run?
Answer: The protein melting temperature was 44.4.

Question: Which protein melting temperature (Biolog plate: PM02A) does the source give for `NCCCC(=O)O` [g-Amino-N-Butyric acid] here?
Answer: The protein melting temperature was 44.4.

Question: And the protein melting temperature (Biolog plate: PM03B)?
Answer: Its protein melting temperature is 44.

Question: With `OC[C@H]1O[C@@H]2O[C@H]3[C@H](O)[C@@H](O)[C@@H](O[C@H]4[C@H](O)[C@@H](O)[C@@H](O[C@H]5[C@H](O)[C@@H](O)[C@@H](O[C@H]6[C@H](O)[C@@H](O)[C@@H](O[C@H]7[C@H](O)[C@@H](O)[C@@H](O[C@H]8[C@H](O)[C@@H](O)[C@@H](O[C@H]9[C@H](O)[C@@H](O)[C@@H](O[C@H]1[C@H](O)[C@H]2O)O[C@@H]9CO)O[C@@H]8CO)O[C@@H]7CO)O[C@@H]6CO)O[C@@H]5CO)O[C@@H]4CO)O[C@@H]3CO` [g-Cyclodextrin] as the compound, how does the protein melting temperature (Biolog plate: PM02A) read?
Answer: The protein melting temperature was 44.7.

Question: `O=C(O)CCCO` [g-Hydroxybutyric acid] was tested. Which protein melting temperature (Biolog plate: PM02A) did it give?
Answer: Its protein melting temperature is 44.2.

Question: How did the protein melting temperature (Biolog plate: PM02A) turn out when `OC[C@@H](O)[C@@H](O)CO` [i-Erythritol] was run?
Answer: The protein melting temperature was 43.7.

Question: `O=C(O)Cc1cccc(O)c1` [m-Hydroxyphenyl Acetic acid] was tested. Which protein melting temperature (Biolog plate: PM01) did it give?
Answer: Its protein melting temperature is 44.9.

Question: How did the protein melting temperature (Biolog plate: PM05) turn out when `Nc1ccc(C(=O)O)cc1` [p-Amino-Benzoic acid] was run?
Answer: Its protein melting temperature is 43.7.

Question: Which protein melting temperature (Biolog plate: PM04A) does the source give for `Nc1ccc(S(=O)(=O)O)cc1` [p-Aminobenzene Sulfonic acid] here?
Answer: Its protein melting temperature is 44.5.

Question: `O=C(O)Cc1ccc(O)cc1` [p-Hydroxyphenyl Acetic acid] was tested. Which protein melting temperature (Biolog plate: PM01) did it give?
Answer: Its protein melting temperature is 45.3.
